The values that follow come from patent US20100279413A1, “APPLICATIONS OF UBIQUINONES AND UBIQUINOLS” (ZYMES, LLC, priority 2008, published 2010).

Data set [1] has as its system cultured fetal rat DRGs. Briefly: CoQ10 / HQO dose response: neurite growth and survival of cultured fetal rat DRGs. The following applies: for mean neurite length: day 16, controls 4.84 mm, p<0.0001. Type of data set: cell-based. On the procedure: In fact, by day 11, the length of neurites around DRGs was longer if the DRGs were cultured with CoQ10 (concentrations ranged from 0.1-50 uM) compared with control DRGs, p<0.0001 for all. FIG. 1A, 1B, 1C.
The aim of the second experiment was to confirm that exposure to 50 uM CoQ10 is not toxic to cultured fetal rat DRGs and also to see if even higher concentrations may be used safely. Eight DRGs (2 plates of 4 DRGs each) were cultured under each of the following conditions: • Control • 50 uM CoQ10 • 75 uM CoQ10 • 100 uM CoQ10
This experiment was carried on for 22 days, which is about as long as DRGs can be sustained in this model, even under control conditions. The experiment was continued for this time period to confirm that CoQ10 remains non-toxic in this model over time.
Neurite lengths around each DRG were measured at four representative points (giving a total of 32 measures at each exposure concentration at each time point) on days 1, 2, 5, 8, 12, 16 and 22.
A third experiment measured growth of DRG's with varying doses of HQO™, 0.1, 10, 100 uM CoQ10. This experiment was done in DRG's isolated from a new rat, which accounts for the difference in neurite length compared to experiments 1 and 2. […] (FIG. 1E)

The subject of data set [2] is cultured fetal rat dorsal root ganglia (DRGs). Briefly: In vitro model of ATN: NRTI (d4T/ddI) neurotoxicity in cultured fetal rat DRGs. Type of data set: cell-based. On the procedure: Objective: To examine the safety and preventative efficacy of HQO™ using cultured fetal rat dorsal root ganglia (DRGs) as an in vitro model of ATN.
In a separate experiment, DRGs were exposed to a higher dose (50 μM) of d4T alone or with 10 or 100 nM HQO™.

On to `COC1=C(OC)C(=O)C(C/C=C(\C)CC/C=C(\C)CC/C=C(\C)CC/C=C(\C)CC/C=C(\C)CC/C=C(\C)CC/C=C(\C)CC/C=C(\C)CC/C=C(\C)CCC=C(C)C)=C(C)C1=O` [CoQ10, coenzyme Q10], for which the “length of neurites around DRGs compared with control DRGs” value in data set [1] (day 11, 0.1-50 uM, p<0.0001 for all) is “longer”. Also, the mean neurite length in data set [1] (75 uM (non-viable DRG excluded)) turned out to be 6.20 mm; in data set [1] (100 uM), 6.07 mm. Moreover, the “toxicity in cultured fetal rat DRGs” value in data set [1] (first dose finding experiment, concentrations up to 50 uM) is “no evidence of toxicity”; in data set [1] (second experiment, 50, 75, 100 uM, up to 22 days), “no evidence of toxicity”.
Consider `CC(=O)O[C@H](CC(=O)[O-])C[N+](C)(C)C` [LAC, L-acetyl carnitine], for which, in data set [2] (heading of Example 3, no data given), the “NRTI (ddI)-induced neurotoxicity of fetal rat DRGs” value is reported as “Prevents”.
On to `Cc1cn([C@H]2C=C[C@@H](CO)O2)c(=O)[nH]c1=O` [d4T, stavudine], for which the “toxicity in DRGs (NRTI alone)” value in data set [2] (50 μM d4T alone, by day 8) is on record as “evident”.
